Bridge positions count the residues as written; N and C are the ends. Peptide text beside a SMILES is read from it.

For series [1], the target named is T1, Glucagon-like peptide 1 receptor (Homo sapiens, UniProt P43220). Kind of series: Activation of human GLP1 receptor expressed in HEK293 cells assessed as increase in cAMP accumulation. Format: functional, cell-based.
Series [2] concerns the target T1, Glucagon-like peptide 1 receptor. Kind of series: Activation of human GLP1 receptor expressed in HEK293 cells assessed as increase in cAMP accumulation relative to GLP1. In kind it is functional, cell-based.
The test system of another series is DPP4. Kind of series: Chemical stability of the compound assessed as half life up to 24 hrs by HPLC analysis in presence of human recombinant DPP4. Format: physicochemical.
A further series concerns NEP 24.11. Description: Chemical stability of the compound assessed as half life up to 24 hrs by HPLC analysis in presence of human recombinant NEP 24.11. Format: physicochemical.

T1 sequence (P43220 whole entry): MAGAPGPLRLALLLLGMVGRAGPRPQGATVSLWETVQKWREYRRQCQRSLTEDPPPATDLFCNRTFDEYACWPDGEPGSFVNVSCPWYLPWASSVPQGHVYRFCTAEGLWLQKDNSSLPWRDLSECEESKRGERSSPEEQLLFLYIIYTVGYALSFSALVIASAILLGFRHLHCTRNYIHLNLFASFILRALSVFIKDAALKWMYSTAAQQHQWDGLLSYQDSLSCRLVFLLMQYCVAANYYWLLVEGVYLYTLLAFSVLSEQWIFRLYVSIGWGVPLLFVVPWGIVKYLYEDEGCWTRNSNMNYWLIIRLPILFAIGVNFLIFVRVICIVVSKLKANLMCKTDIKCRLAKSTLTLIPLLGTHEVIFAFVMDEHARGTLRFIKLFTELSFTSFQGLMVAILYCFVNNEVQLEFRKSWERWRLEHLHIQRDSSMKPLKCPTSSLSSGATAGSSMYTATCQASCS

Broadly, the half-life is the time needed for the level to fall by half in the phase considered. Consider `CC[C@H](C)[C@H](NC(=O)[C@H](Cc1ccccc1)NC(=O)[C@H](CCC(=O)O)NC(=O)[C@H](CCCCN)NC(=O)[C@H](C)NC(=O)[C@H](C)NC(=O)[C@H](CCC(N)=O)NC(=O)CNC(=O)[C@H](CCC(=O)O)NC(=O)[C@@H]1CCC(=O)NCCCC[C@H](NC(=O)[C@H](CC(=O)O)NC(=O)[C@H](CO)NC(=O)[C@@H](NC(=O)[C@H](Cc2ccccc2)NC(=O)[C@@H](NC(=O)CNC(=O)[C@H](CCC(=O)O)NC(=O)[C@H](C)NC(=O)[C@@H](N)Cc2cnc[nH]2)[C@@H](C)O)[C@@H](C)O)C(=O)N[C@@H](CO)C(=O)N[C@@H](CO)C(=O)N[C@@H](Cc2ccc(O)cc2)C(=O)N1)C(=O)N[C@H]1CCCCNC(=O)CC[C@@H](C(=O)NCC(=O)N[C@@H](CCCNC(=N)N)C(N)=O)NC(=O)[C@H](C(C)C)NC(=O)[C@H](CC(C)C)NC(=O)[C@H](Cc2c[nH]c3ccccc23)NC1=O` (H-HAEGTFTSDKSSYEEGQAAKEFIKWLVEGR-NH2; lactam 10-14, 24-28), for which the EC50 in series [1] (read-out: EC50) was determined as 7 nM. Further, the Activity in series [2] turned out to be 70%. For the same compound, the half-life in the series on DPP4 was 2.9 h; in the series on NEP 24.11, 17 h.
With `CC[C@H](C)[C@H](NC(=O)[C@H](Cc1ccccc1)NC(=O)[C@H](CCC(=O)O)NC(=O)[C@H](CCCCN)NC(=O)[C@H](C)NC(=O)[C@H](C)NC(=O)[C@H](CCC(N)=O)NC(=O)CNC(=O)[C@@H]1CCCCNC(=O)CC[C@H](NC(=O)[C@H](CC(=O)O)NC(=O)[C@H](CO)NC(=O)[C@@H](NC(=O)[C@H](Cc2ccccc2)NC(=O)[C@@H](NC(=O)CNC(=O)[C@H](CCC(=O)O)NC(=O)[C@H](C)NC(=O)[C@@H](N)Cc2cnc[nH]2)[C@@H](C)O)[C@@H](C)O)C(=O)N[C@@H](CO)C(=O)N[C@@H](CO)C(=O)N[C@@H](Cc2ccc(O)cc2)C(=O)N1)C(=O)N[C@@H](C)C(=O)N[C@@H](Cc1c[nH]c2ccccc12)C(=O)N[C@@H](CC(C)C)C(=O)N[C@H](C(=O)N[C@@H](CCCCN)C(=O)NCC(=O)N[C@@H](CCCNC(=N)N)C(N)=O)C(C)C` (H-HAEGTFTSDESSYKGQAAKEFIAWLVKGR-NH2; lactam 10-14), in series [1] (read-out: EC50), the EC50 stood at 3.8 nM. Moreover, the Activity in series [2] came out at 120%. Further, the half-life in the series with DPP4 turned out to be 1.8 h; in the series on NEP 24.11 it was 3.2 h.
With `CC[C@H](C)[C@H](NC(=O)[C@H](Cc1ccccc1)NC(=O)[C@H](CCC(=O)O)NC(=O)[C@H](CCCCN)NC(=O)[C@H](C)NC(=O)[C@H](C)NC(=O)[C@H](CCC(N)=O)NC(=O)CNC(=O)[C@H](CCC(=O)O)NC(=O)[C@H](CC(C)C)NC(=O)[C@H](Cc1ccc(O)cc1)NC(=O)[C@H](CO)NC(=O)[C@H](CO)NC(=O)[C@@H](NC(=O)[C@H](CC(=O)O)NC(=O)[C@H](CO)NC(=O)[C@@H](NC(=O)[C@H](Cc1ccccc1)NC(=O)[C@@H](NC(=O)CNC(=O)[C@H](CCC(=O)O)NC(=O)[C@H](C)NC(=O)[C@@H](N)Cc1cnc[nH]1)[C@@H](C)O)[C@@H](C)O)C(C)C)C(=O)N[C@H]1CCC(=O)NCCCC[C@@H](C(=O)NCC(=O)N[C@@H](CCCNC(=N)N)C(N)=O)NC(=O)[C@H](C(C)C)NC(=O)[C@H](CC(C)C)NC(=O)[C@H](Cc2c[nH]c3ccccc23)NC1=O`, the EC50 in series [1] (read-out: EC50) was 5.3 nM; in series [1] (read-out: pEC50 (converted)) it was 2.51 nM. The Activity in series [2] is 90%. Moreover, the half-life with DPP4 was found to be 3.3 h; in the series with NEP 24.11, 6.9 h.
As for `CC[C@H](C)[C@H](NC(=O)[C@H](Cc1ccccc1)NC(=O)[C@H](CCC(=O)O)NC(=O)[C@H](CCCCN)NC(=O)[C@H](C)NC(=O)[C@H](C)NC(=O)[C@@H]1CCCCNC(=O)CC[C@H](NC(=O)[C@H](CO)NC(=O)[C@@H](NC(=O)[C@H](CC(=O)O)NC(=O)[C@H](CO)NC(=O)[C@@H](NC(=O)[C@H](Cc2ccccc2)NC(=O)[C@@H](NC(=O)CNC(=O)[C@H](CCC(=O)O)NC(=O)[C@H](C)NC(=O)[C@@H](N)Cc2cnc[nH]2)[C@@H](C)O)[C@@H](C)O)C(C)C)C(=O)N[C@@H](Cc2ccc(O)cc2)C(=O)N[C@@H](CC(C)C)C(=O)NCC(=O)N1)C(=O)N[C@@H](C)C(=O)N[C@@H](Cc1c[nH]c2ccccc12)C(=O)N[C@@H](CC(C)C)C(=O)N[C@H](C(=O)N[C@@H](CCCCN)C(=O)NCC(=O)N[C@@H](CCCNC(=N)N)C(N)=O)C(C)C` (H-HAEGTFTSDVSEYLGKAAKEFIAWLVKGR-NH2; lactam 12-16), the EC50 in series [1] (read-out: EC50) worked out at 0.6 nM. Further, in series [2], the Activity was 770%. In addition, the half-life is 2.1 h with DPP4 and 10 h with NEP 24.11.
As to `CC[C@H](C)[C@H](NC(=O)[C@H](Cc1ccccc1)NC(=O)[C@H](CCC(=O)O)NC(=O)[C@@H]1CCCCNC(=O)CC[C@H](NC(=O)[C@H](CCC(=O)O)NC(=O)[C@H](CC(C)C)NC(=O)[C@H](Cc2ccc(O)cc2)NC(=O)[C@H](CO)NC(=O)[C@H](CO)NC(=O)[C@@H](NC(=O)[C@H](CC(=O)O)NC(=O)[C@H](CO)NC(=O)[C@@H](NC(=O)[C@H](Cc2ccccc2)NC(=O)[C@@H](NC(=O)CNC(=O)[C@H](CCC(=O)O)NC(=O)[C@H](C)NC(=O)[C@@H](N)Cc2cnc[nH]2)[C@@H](C)O)[C@@H](C)O)C(C)C)C(=O)N[C@@H](CCC(N)=O)C(=O)N[C@@H](C)C(=O)N[C@@H](C)C(=O)N1)C(=O)N[C@H]1CCC(=O)NCCCC[C@@H](C(=O)NCC(=O)N[C@@H](CCCNC(=N)N)C(N)=O)NC(=O)[C@H](C(C)C)NC(=O)[C@H](CC(C)C)NC(=O)[C@H](Cc2c[nH]c3ccccc23)NC1=O` (H-HAEGTFTSDVSSYLEEQAAKEFIEWLVKGR-NH2; lactam 16-20, 24-28), the EC50 in series [1] (read-out: EC50) is 1.6 nM. Also, the Activity in series [2] is 290%. For the same compound, the figures for the half-life with DPP4 and with NEP 24.11 were 6 h and 3.5 h, respectively.

Source of the values: ChEMBL document CHEMBL1240496, “Development of potent glucagon-like peptide-1 agonists with high enzyme stability via introduction of multiple lactam bridges” (J Med Chem, 2010).
